Numbers after ± are expanded uncertainties.
Columns and labels:
[1] = 298 K; 101.33 kPa; Crystal; X-ray diffraction
[2] = refractive index (Na D-line) (dimensionless); mn = molality of the nth substance listed, in mol/kg; settings: 293.15 K; 101 kPa; Liquid; Standard Abbe refractometry; m1 = 0.02

mass density [1] [kg/m3]	refractive index [2]	SMILES
1749 ± 9		CC(=O)C(=O)[O-].[Na+] [sodium pyruvate]
	1.3308 ± 0.0007	CC(=O)C(=O)[O-].[Na+] [sodium pyruvate] + O

Source: the NIST ThermoML archive (doi:10.1016/j.jct.2014.06.029)
